Some test systems named below: 786-0 renal; OVCAR-4 ovarian; RPMI-8226 leukemia; SK-MEL-2 melanoma; SK-OV-3 ovarian; SNB-19 CNS; SNB-75 CNS; SW-620 colon; UACC-257 melanoma; UACC-62 melanoma.
Holding throughout (assay): inhibition of tumour cell growth, NCI panel, 48 h

Our source for the TGI and GI50 values is PubChem BioAssay (NCI).

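Cultured in 96-well plates, cells were exposed to test compound for 48 hours across five concentrations. Abbreviation: GI50, concentration required for 50% inhibition of growth. The concentration for full growth arrest is given as TGI.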

Turning to `CC1c2[nH]c3ccccc3c2CCN1O` (stereo not given), the TGI in the assay with 786-0 renal, with OVCAR-4 ovarian, in the assay on RPMI-8226 leukemia, in the assay on SK-MEL-2 melanoma, in the assay with SK-OV-3 ovarian and with SNB-19 CNS was more than 100 µM each time. Besides, the TGI in the assay with SNB-75 CNS, in the assay on SW-620 colon, in the assay with UACC-257 melanoma and in the assay with UACC-62 melanoma was more than 100 µM in each case.

`O=P(O)(O)OCC1OC(n2cnc3c(NCc4ccccc4)ncnc32)C(O)C1O` (stereo not given): the GI50 in the assay with 786-0 renal was 2.83 µM; in the assay with OVCAR-4 ovarian, 0.642 µM; in the assay on RPMI-8226 leukemia, 3.97 µM; with SK-MEL-2 melanoma, more than 23.8 µM; in the assay on SK-OV-3 ovarian it was 2.73 µM; in the assay on SNB-19 CNS, 4.18 µM. Besides, the GI50 with SNB-75 CNS is 0.987 µM; with SW-620 colon, 1.33 µM; with UACC-257 melanoma it was more than 75.2 µM; in the assay with UACC-62 melanoma it was 5.02 µM. For the same compound, the TGI is more than 67.6 µM in the assay with 786-0 renal; 33.1 µM with OVCAR-4 ovarian; more than 52.1 µM in the assay on RPMI-8226 leukemia; more than 84.4 µM in the assay on SK-MEL-2 melanoma; 11.1 µM in the assay on SK-OV-3 ovarian; more than 100 µM with SNB-19 CNS. The TGI with SNB-75 CNS is more than 44.1 µM; in the assay on SW-620 colon, more than 73.9 µM; in the assay with UACC-257 melanoma it was more than 100 µM; in the assay on UACC-62 melanoma it was more than 100 µM.

For `COc1cc2cnc3c4cc(OCc5ccccc5)ccc4ccc3c2cc1OC`, the TGI in the assay with 786-0 renal was 44.5 µM; with OVCAR-4 ovarian, 39.8 µM; in the assay on RPMI-8226 leukemia, 20.2 µM; with SK-MEL-2 melanoma, 63 µM; with SK-OV-3 ovarian, 56.8 µM; in the assay on SNB-19 CNS, more than 100 µM. Besides, the TGI is 18.7 µM with SNB-75 CNS, more than 100 µM with SW-620 colon, more than 100 µM with UACC-257 melanoma and more than 100 µM in the assay on UACC-62 melanoma.

In the case of `CC1SC(c2ccc(Cl)cc2Cl)N(NC(=O)C(O)c2ccccc2)C1=O` (stereo not given), the GI50 in the assay with 786-0 renal was more than 100 µM; in the assay on OVCAR-4 ovarian, 28.5 µM; in the assay with RPMI-8226 leukemia, 38.9 µM; with SK-MEL-2 melanoma, more than 100 µM; in the assay with SK-OV-3 ovarian, more than 100 µM; with SNB-19 CNS it was more than 100 µM. Moreover, the GI50 in the assay with SNB-75 CNS is 32.1 µM; in the assay on SW-620 colon, more than 100 µM; in the assay with UACC-257 melanoma, 61.7 µM; in the assay on UACC-62 melanoma, 24.2 µM. Moreover, the TGI in the assay with 786-0 renal is more than 100 µM; in the assay with OVCAR-4 ovarian it was 98.5 µM; in the assay with RPMI-8226 leukemia, more than 100 µM; in the assay with SK-MEL-2 melanoma it was more than 100 µM; with SK-OV-3 ovarian, more than 100 µM; with SNB-19 CNS it was more than 100 µM. Also, the TGI with SNB-75 CNS, in the assay on SW-620 colon, with UACC-257 melanoma and in the assay on UACC-62 melanoma was more than 100 µM throughout.

In the case of `C[N+](C)=c1ccc2nc3c(cc(NCCCNc4cc5oc6cc(=[N+](C)C)ccc-6nc5c5ccccc45)c4ccccc43)oc-2c1`, the GI50 was 4.66 µM in the assay with 786-0 renal; 0.715 µM in the assay with OVCAR-4 ovarian; 1.69 µM with RPMI-8226 leukemia; 15 µM with SK-MEL-2 melanoma; 18.7 µM in the assay with SK-OV-3 ovarian; 3.6 µM with SNB-19 CNS. Besides, the GI50 in the assay on SNB-75 CNS is 1.56 µM; in the assay with SW-620 colon, 1.77 µM; in the assay with UACC-257 melanoma, 4.34 µM; in the assay on UACC-62 melanoma, 2.3 µM. The TGI with 786-0 renal was found to be 43.4 µM; with OVCAR-4 ovarian it was 2.08 µM; in the assay on RPMI-8226 leukemia it was 13.1 µM; with SK-MEL-2 melanoma, 45.7 µM; in the assay with SK-OV-3 ovarian, 42.3 µM; in the assay with SNB-19 CNS it was 19.4 µM. Further, the TGI in the assay with SNB-75 CNS was 3.64 µM; with SW-620 colon, 4.02 µM; in the assay on UACC-257 melanoma, 16.3 µM; in the assay with UACC-62 melanoma, 6.88 µM.

On to `O=C(/C=C/C12c3ccccc3C(c3ccccc31)C1C(=O)NC(=O)C12)c1ccccc1` (stereo not given), for which the GI50 in the assay with 786-0 renal was 1.7 µM; in the assay with OVCAR-4 ovarian, 2.3 µM; in the assay with RPMI-8226 leukemia, 1.51 µM; with SK-MEL-2 melanoma it was 2.35 µM; in the assay on SK-OV-3 ovarian, 2.37 µM; in the assay with SNB-19 CNS, 1.66 µM. The GI50 was 1.2 µM in the assay on SNB-75 CNS, 1.92 µM in the assay with SW-620 colon, 1.61 µM in the assay on UACC-257 melanoma and 1.77 µM with UACC-62 melanoma. Also, the TGI in the assay with 786-0 renal is 3.1 µM; with OVCAR-4 ovarian, 12.1 µM; with RPMI-8226 leukemia it was 4.1 µM; in the assay with SK-MEL-2 melanoma it was 4.62 µM; with SK-OV-3 ovarian, 5.2 µM; in the assay on SNB-19 CNS, 3.34 µM. Also, the TGI in the assay on SNB-75 CNS came out at 2.55 µM; with SW-620 colon, 4.93 µM; in the assay with UACC-257 melanoma, 3.48 µM; with UACC-62 melanoma it was 3.82 µM.

Turning to `C[C@@H]1CC[C@@]2(NC1)O[C@H]1C[C@H]3[C@@H]4CC[C@H]5C[C@@H](O)CC[C@]5(C)[C@H]4CC[C@]3(C)[C@H]1[C@@H]2C`, the TGI with 786-0 renal was more than 100 µM; with OVCAR-4 ovarian it was 71.7 µM; with RPMI-8226 leukemia, 85.6 µM; with SK-MEL-2 melanoma, more than 100 µM; in the assay with SK-OV-3 ovarian, more than 100 µM; with SNB-19 CNS, more than 100 µM. Moreover, the TGI with SNB-75 CNS, in the assay on SW-620 colon, in the assay on UACC-257 melanoma and in the assay on UACC-62 melanoma was more than 100 µM each time.

Turning to `COc1ccc([C@@H]2OC(=O)C3C2C(=O)O[C@H]3c2ccc(OC)c(OC)c2)cc1OC` (stereo not given in full), the TGI in the assay on 786-0 renal, in the assay with OVCAR-4 ovarian, in the assay on RPMI-8226 leukemia, in the assay with SK-MEL-2 melanoma, in the assay with SK-OV-3 ovarian and with SNB-19 CNS was more than 100 µM in each case. For the same compound, the TGI in the assay on SNB-75 CNS, in the assay with SW-620 colon, with UACC-257 melanoma and with UACC-62 melanoma was more than 100 µM each time.

As for `O=C([O-])CC(=O)[O-].[NH-][C@@H]1CCCC[C@H]1[NH-].[Pt+4]`, the GI50 with 786-0 renal is 13.2 µM; with OVCAR-4 ovarian, more than 33.9 µM; with RPMI-8226 leukemia it was 1.05 µM; with SK-MEL-2 melanoma, 59.9 µM; in the assay with SK-OV-3 ovarian, more than 100 µM; with SNB-19 CNS it was 32.1 µM. In addition, the GI50 in the assay on SNB-75 CNS is more than 35.9 µM; in the assay with SW-620 colon, 2.1 µM; with UACC-257 melanoma it was more than 89 µM; in the assay with UACC-62 melanoma it was 20.2 µM. For the same compound, the TGI with 786-0 renal, with OVCAR-4 ovarian, in the assay on RPMI-8226 leukemia, in the assay with SK-MEL-2 melanoma, with SK-OV-3 ovarian and in the assay on SNB-19 CNS was more than 100 µM throughout. Further, the TGI in the assay with SNB-75 CNS, with SW-620 colon, in the assay with UACC-257 melanoma and with UACC-62 melanoma was more than 100 µM in each case.
